Experimental data as given in patent US10786580B2, “Cholecystokinin 2 receptor targeted NIR imaging and use thereof” (On Target Laboratories, LLC, priority 2016, dated 2020).
Read-outs that look alike come from different tables or passages of the source.

Key:
[1] = Excitation and emission spectra; assay type: physicochemical; conditions: FIG. 12
Description: FIG. 12 depicts the chemical structure, excitation and emission spectra of compound 21 (OTL81).

HEK-CCK2 cells = test: Epi-fluorescence microscopy of binding to CCK2R expressing HEK cells; assay type: cell-based, human; conditions: FIGS. 14c & d
Method: (§1) HEK-CCK2 cells (a human embryonic kidney cells transfected with CCK2 receptor) were a kind gift from Dr. Mark Hellmich (University of Texas Medical Branch, Galveston, Tex.) and grown as a monolayer using Dulbecco's Modified Eagles Medium (GIBCO) (Gibco, NY) 10% heat-inactivated fetal bovine serum (Atlanta Biological, GA) and 1% penicillin streptomycin (Gibco, NY) in a 5% carbon dioxide: 95% air-humidified atmosphere at 37° C. for at least six passages before they were used for the assays.

CCK2R = target: T1, CCK2R (Homo sapiens, UniProt P32239); test: In vitro binding of CCK2R-NIR compounds to HEK-CCK2R cells (cell bound fluorescence); design: expressed in transfected cells; host or cells: HEK (human embryonic kidney) cells, HEK-CCK2R, gift from Dr. Mark Hellmich (UTMB); conditions: for Kd: 1 h at 37° C.
T1 sequence (P32239 1-447): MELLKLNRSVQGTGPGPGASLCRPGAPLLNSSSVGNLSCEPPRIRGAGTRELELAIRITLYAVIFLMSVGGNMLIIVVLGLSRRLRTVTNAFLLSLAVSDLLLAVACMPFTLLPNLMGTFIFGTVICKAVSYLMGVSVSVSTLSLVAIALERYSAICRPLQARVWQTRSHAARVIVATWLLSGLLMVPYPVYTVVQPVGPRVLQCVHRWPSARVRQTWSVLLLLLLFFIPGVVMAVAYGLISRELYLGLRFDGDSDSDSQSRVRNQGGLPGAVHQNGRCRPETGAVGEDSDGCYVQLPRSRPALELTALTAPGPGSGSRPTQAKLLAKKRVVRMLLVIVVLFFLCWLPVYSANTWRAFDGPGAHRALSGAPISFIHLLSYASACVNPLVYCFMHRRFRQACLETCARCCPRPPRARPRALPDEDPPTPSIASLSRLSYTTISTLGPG
Method: (§2) FIG. 4 depicts the binding affinities of CCK2R-NIR compounds 21, 42-44 to CCK2R. CCK2R-positive HEK-CCK2R cancer cells were incubated for 1 h at 37° C. with increasing concentrations of compounds. Media was then removed, washed with fresh media three times, and replaced with PBS. Cell bound fluorescence was assayed as using fluorometer.
CCK2R-positive HEK-CCK2R cancer cells were incubated for 1 h at 37° C. with increasing concentrations of compounds. Media was then removed, washed with fresh media three times, and replaced with PBS. Cell bound fluorescence was assayed as using fluorometer.
as §2, with “13 illustrates” for “4 depicts”, “affinity” for “affinities”, “of” for “of CCK2R-NIR”, “[…]” for “21, 42-44”, “compound 21.” for “compounds.”
as §1
HEK cells that overexpress CCK2 were seeded into a T75 flask and allowed to form a monolayer over 48 h. After trypsin digestion, release cells were transferred into centrifuge tubes (1×10^6 cells/tube) and centrifuged. The medium was replaced with fresh medium containing increasing concentration of requisite CCK2R-Ligand-NIR dye compound in the presence or absence of 100-fold excess the ligand, a high affinity CCK2 receptor antagonist, and incubated for 1 h at 37° C. After rinsing with fresh medium (2×1.0 mL) and PBS (1×1.0 mL), cells were resuspended in PBS (1.0 mL) and cell bound fluorescence was analyzed (100,000 cells/sample) using a fluorometer (Cary, Agilent). The relative binding affinities were calculated using a plot of % cell bound fluorescence versus the log concentration of the test article using GraphPad Prism 4.

[2] = test system: HEK-CCK2R tumor xenograft; test: Whole-body imaging and ex vivo tissue biodistribution in mice bearing HEK-CCK2R tumor xenografts
Method: (§3) FIG. 2A illustrates the overlay of whole body fluorescence image over white light images after adjusting the threshold for compound 40. HEK-CCK2R tumor xenograft bearing mice were injected with 10 nmol of compound 1 and imaged with IVIS imager (ex=745 nm, em=ICG, exposure time=1 s) at 2 h post-injection. After imaging, selected tissues were harvested, and tissues were imaged with IVIS imager (ex=745 nm, em=ICG, exposure time=1 s).
as §3, with “FIG. 2C depicts” for “FIG. 2A illustrates”, “compound 41.” for “compound 40.”, “[…]” for “compound 1”
as §3, with “FIG. 5A” for “FIG. 2A”, “the analysis of compound 21” for “the”, “the threshold.” for “the threshold for compound 40.”, “of 21” for “of compound 1”
FIG. 9 depicts a head-to-head comparison of fluorescence in the tumors from the mice injected with CCK2R-targeted-NIR dye compounds 21, 40-44. Overlay of tumor fluorescence image over white light images. HEK-CCK2R tumor xenograft bearing mice were injected with 10 nmol of requisite compound and imaged with IVIS imager at 2 h post-injection. After imaging, tumor tissues were harvested, and imaged with IVIS imager (ex=745 nm, em=ICG, exposure time=1 s).
FIG. 14E depicts the in vivo efficacy and specificity of 21 by whole-body imaging with nude mice bearing HEK-CCK2R tumors.
FIG. 14F depicts the ex vivo tissue biodistribution of mice of FIG. 14E dissecting after whole-body imaging.
Athymic female nude (nu/nu) mice (5 weeks old, 18-20 g) were purchased from Envigo (Indianapolis, Ind.) and maintained on normal rodent diet (Teklad, Wis.). Animals were housed 5/cage in a barrier, pathogen-free cloaked rack. Autoclaved tap water and food were given as needed. The animals were housed in a sterile environment on a standard 12 hour light-dark cycle for the duration of the study. […]
six-weeks-old female nu/nu mice were inoculated subcutaneously with HEK-CCK2 cells (5.0×10^6/mouse in 50% high concentrated matrigel in GIBCO medium) on the shoulder. Growth of the tumors was measured in perpendicular directions every 2 days using a caliper (body weights were monitored on the same schedule), and the volumes of the tumors were calculated as 0.5×L×W^2 (L=longest axis and W=axis perpendicular to L in millimeters). […]

[3] = FIG. 14, mice bearing HEK-CCK2R tumor xenografts

Compound: CC(C)(C)C(=O)CN1C(=O)[C@H](NC(=O)Nc2cccc(C(=O)N[C@H](CCC(=O)N[C@@H](Cc3ccc(OC4=C(/C=C/C5=[N+](CCCCS(=O)(=O)[O-])c6ccc(S(=O)(=O)O)cc6C5(C)C)CCC/C4=C\C=C4\N(CCCCS(=O)(=O)O)c5ccc(S(=O)(=O)O)cc5C4(C)C)cc3)C(=O)O)C(=O)O)c2)CN(C2CCCCC2)c2ccccc21 [Compound 21, 4-(2-((E)-2-((E)-2-(4-((S)-2-carboxy-2-((R)-4-carboxy-4-(3-(3-((R)-5-cyclohexyl-1-(3,3-dimethyl-2-oxobutyl)-2-oxo-2,3,4,5-tetrahydro-1H-benzo[b][1,4]diazepin-3-yl)ureido)benzamido)butanamido)ethyl)phenoxy)-3-(2-((E)-3,3-dimethyl-5-sulfo-1-(4-sulfobutyl)indolin-2-ylidene)ethylidene)cyclohex-1-en-1-yl)vinyl)-3,3-dimethyl-5-sulfo-3H-indol-1-ium-1-yl)butane-1-sulfonate]
- Stokes shift [1]: 20 nm
- emission wavelength [1]: 796 nm
- excitation wavelength [1]: 776 nm
- labelling of HEK-CCK2 cells (HEK-CCK2 cells): efficiently label
- Kd (CCK2R; FIG. 13, HEK-CCK2R cells, read-out: dissociation constant (KD)): 1 nM
- Kd (CCK2R; Table 1, CCK2R-positive HEK-CCK2R cancer cells, read-out: KD): 0.67 nM
- affinity for CCK2R (in words) (CCK2R; in vitro binding affinity data, HEK-CCK2R cells): very high affinity
- fluorescence intensity in the tumors ([2]; 10 nmol, 2 h post-injection): very high fluorescence intensity
- tumor uptake, head-to-head comparison ([2]; FIG. 9, 10 nmol, 2 h post-injection, compounds 21, 40-44): highest tumor uptake
- tissue uptake (whole-body imaging and ex vivo biodistribution) [2, 3]: solely taken up in CCK2R positive tumors with no accumulation in other tissues
- tumor-to-background ratio [2, 3]: very high
